Measured values taken from ChEMBL document CHEMBL2413062, “Effect of single pyrrole replacement with β-alanine on DNA binding affinity and sequence specificity of hairpin pyrrole/imidazole polyamides targeting 5'-GCGC-3'” (Bioorg Med Chem, 2013).

What was measured:
[1] = Binding affinity to hair pin DNA ODN4 5'-XGCCATGACGGCTTTTGCCGTACTGGC-3' (unknown origin) by surface plasmon resonance analysis
[2] = Binding affinity to hair pin DNA ODN3 5'-XGCCAGCACGGCTTTTGCCGTGCTGGC-3' (unknown origin) by surface plasmon resonance analysis
[3] = Binding affinity to hair pin DNA ODN1 5'-XGCCAGCGCGGCTTTTGCCGCGCTGGC-3' (unknown origin) by surface plasmon resonance analysis
[4] = Binding affinity to hair pin DNA ODN2 5'-XGCCAGTGCGGCTTTTGCCGCACTGGC-3' (unknown origin) by surface plasmon resonance analysis
[5] = Selectivity ratio of Kd for mismatched hair pin DNA ODN3 5'-XGCCAGCACGGCTTTTGCCGTGCTGGC-3' (unknown origin) to Kd for hair pin DNA ODN1 5'-XGCCAGCGCGGCTTTTGCCGCGCTGGC-3' (unknown origin)
[6] = Selectivity ratio of Kd for mismatched hair pin DNA ODN4 5'-XGCCATGACGGCTTTTGCCGTACTGGC-3' (unknown origin) to Kd for hair pin DNA ODN1 5'-XGCCAGCGCGGCTTTTGCCGCGCTGGC-3' (unknown origin)
[7] = Selectivity ratio of Kd for mismatched hair pin DNA ODN2 5'-XGCCAGTGCGGCTTTTGCCGCACTGGC-3' (unknown origin) to Kd for hair pin DNA ODN1 5'-XGCCAGCGCGGCTTTTGCCGCGCTGGC-3' (unknown origin)

| Kd [1] | Kd [2] | Kd [3] | Kd [4] | Ratio [5] | Ratio [6] | Ratio [7] | SMILES |
| --- | --- | --- | --- | --- | --- | --- | --- |
| 47 nM | 11 nM | 0.44 nM | 89 nM |  |  |  | CN(C)CCCNC(=O)CCNC(=O)c1cc(NC(=O)c2nc(NC(=O)c3cc(NC(=O)c4nc(NC(=O)CCCNC(=O)c5cc(NC(=O)c6nc(NC(=O)CCNC(=O)c7nc(NC(=O)CCNC(=O)CCN)cn7C)cn6C)cn5C)cn4C)cn3C)cn2C)cn1C |
| 18 nM | 11 nM | 0.63 nM | 11 nM | 17 | 29 | 17 | CN(C)CCCNC(=O)CCNC(=O)c1cc(NC(=O)c2nc(NC(=O)CCNC(=O)c3nc(NC(=O)CCCNC(=O)c4cc(NC(=O)c5nc(NC(=O)CCNC(=O)c6nc(NC(=O)CCNC(=O)CCN)cn6C)cn5C)cn4C)cn3C)cn2C)cn1C |
| 82000 nM | 63000 nM | 270 nM | 68000 nM | 230 | 300 | 250 | CN(C)CCCNC(=O)CCNC(=O)c1cc(NC(=O)c2nc(NC(=O)c3cc(NC(=O)c4nc(NC(=O)CCCNC(=O)c5cc(NC(=O)c6nc(NC(=O)c7cc(NC(=O)c8nc(NC(=O)CCNC(=O)CCN)cn8C)cn7C)cn6C)cn5C)cn4C)cn3C)cn2C)cn1C |
| 190 nM | 83 nM | 0.7 nM | 11 nM | 120 | 270 | 16 | CN(C)CCCNC(=O)CCNC(=O)c1cc(NC(=O)c2nc(NC(=O)CCNC(=O)c3nc(NC(=O)CCCNC(=O)c4cc(NC(=O)c5nc(NC(=O)c6cc(NC(=O)c7nc(NC(=O)CCNC(=O)CCN)cn7C)cn6C)cn5C)cn4C)cn3C)cn2C)cn1C |
